Laboratory results as given in patent US9873680B2 (Gilead Sciences, Inc., priority 2014, dated 2018).
Read-outs that look alike come from different tables or passages of the source.

What was measured:
HIV-IIIb = assay: Test A: Antiviral Assay in MT4 Cells; format: cell-based, HIV-1; details: read-out: % inhibition at 0.2 μM (percent inhibition of virus-induced cell killing)
Method in brief: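 MT-4 cells were preinfected with HIV-IIIb […]. Cell viability, as protection from viral cytopathic effect, was read by CellTiter-Glo chemiluminescence.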

[1] = Test B: Cytotoxicity Assay; format: cell-based; details: human, uninfected MT-4 cells, CellTiter-Glo
Protocol: Test B: Cytotoxicity Assay Compound cytotoxicity and the corresponding CC50 values was determined using the same protocol as described in the antiviral assay (Test A) except that uninfected cells were used.

[2] = Human immunodeficiency virus 1, MT4, 120 h, 0.2 μM drug concentration, MT-4 cells infected with HIV-IIIb, 5 days, values normalized to 100%, average over time

## Cn1nc(NS(C)(=O)=O)c2c(Cl)ccc(-c3ccc(C#CC(O)C4CNC4)nc3[C@H](Cc3cc(F)cc(F)c3)NC(=O)Cn3nc(C(F)(F)F)c4c3C(F)(F)[C@@H]3C[C@H]43)c21 (stereo partly drawn) [Compound 65, N-((1S)-1-(6-(3-(azetidin-3-yl)-3-hydroxyprop-1-yn-1-yl)-3-(4-chloro-1-methyl-3-(methylsulfonamido)-1H-indazol-7-yl)pyridin-2-yl)-2-(3,5-difluorophenyl)ethyl)-2-((3bS,4aR)-5,5-difluoro-3-(trifluoromethyl)-3b,4,4a,5-tetrahydro-1H-cyclopropa[3,4]cyclopenta[1,2-c]pyrazol-1-yl)acetamide]
HIV-IIIb; [2]
  inhibition at 0.2 µM: 37%
[1]
  CC50 at 5 days: 19.3 µM

## Cn1nc(NS(C)(=O)=O)c2c(Cl)ccc(-c3ccc(C#CC4(O)CCOCC4)nc3[C@H](Cc3cc(F)cc(F)c3)NC(=O)Cn3nc(C(F)F)c4c3C(F)(F)[C@@H]3C[C@H]43)c21 [Compound 40, N—((S)-1-(3-(4-chloro-1-methyl-3-(methylsulfonamido)-1H-indazol-7-yl)-6-((4-hydroxytetrahydro-2H-pyran-4-yl)ethynyl)pyridin-2-yl)-2-(3,5-difluorophenyl)ethyl)-2-((3bS,4aR)-3-(difluoromethyl)-5,5-difluoro-3b,4,4a,5-tetrahydro-1H-cyclopropa[3,4]cyclopenta[1,2-c]pyrazol-1-yl)acetamide]
HIV-IIIb; [2]
  inhibition at 0.2 µM: 96%
[1]
  CC50 at 5 days: 17 µM

## Cn1nc(NS(C)(=O)=O)c2c(Cl)ccc(-c3ccc(-c4cnn(C5COC5)c4)nc3[C@H](Cc3cc(F)cc(F)c3)NC(=O)Cn3nc(C(F)(F)F)c4c3C(F)(F)[C@@H]3C[C@H]43)c21 [Compound 72, N—((S)-1-(3-(4-chloro-1-methyl-3-(methylsulfonamido)-1H-indazol-7-yl)-6-(1-(oxetan-3-yl)-1H-pyrazol-4-yl)pyridin-2-yl)-2-(3,5-difluorophenyl)ethyl)-2-((3bS,4aR)-5,5-difluoro-3-(trifluoromethyl)-3b,4,4a,5-tetrahydro-1H-cyclopropa[3,4]cyclopenta[1,2-c]pyrazol-1-yl)acetamide]
HIV-IIIb; [2]
  inhibition at 0.2 µM: 93%
[1]
  CC50 at 5 days: 50.3 µM

## Cn1nc(NS(C)(=O)=O)c2cccc(-c3ccc(C#CC4(O)CCC4)nc3[C@H](Cc3cc(F)cc(F)c3)NC(=O)Cn3nc(C(F)(F)F)c4c3C(F)(F)[C@@H]3C[C@H]43)c21 [Compound 24D, 2-((3bS,4aR)-5,5-difluoro-3-(trifluoromethyl)-3b,4,4a,5-tetrahydro-1H-cyclopropa[3,4]cyclopenta[1,2-c]pyrazol-1-yl)-N—((S)-2-(3,5-difluorophenyl)-1-(6-((1-hydroxycyclobutyl)ethynyl)-3-(1-methyl-3-(methylsulfonamido)-1H-indazol-7-yl)pyridin-2-yl)ethyl)acetamide]
HIV-IIIb; [2]
  inhibition at 0.2 µM: 100%
[1]
  CC50 at 5 days: 15.8 µM

## Cn1nc(NS(C)(=O)=O)c2c(Cl)ccc(-c3ccc(C#CC(C)(O)c4ccco4)nc3[C@H](Cc3cc(F)cc(F)c3)NC(=O)Cn3nc(C(F)(F)F)c4c3C(F)(F)[C@@H]3C[C@H]43)c21 (stereo partly drawn) [Compound 54, N-((1S)-1-(3-(4-chloro-1-methyl-3-(methylsulfonamido)-1H-indazol-7-yl)-6-(3-(furan-2-yl)-3-hydroxybut-1-yn-1-yl)pyridin-2-yl)-2-(3,5-difluorophenyl)ethyl)-2-((3bS,4aR)-5,5-difluoro-3-(trifluoromethyl)-3b,4,4a,5-tetrahydro-1H-cyclopropa[3,4]cyclopenta[1,2-c]pyrazol-1-yl)acetamide]
HIV-IIIb; [2]
  inhibition at 0.2 µM: 100%
[1]
  CC50 at 5 days: 11.6 µM

## Cn1nc(NS(C)(=O)=O)c2c(Cl)ccc(-c3ccc(C#CC4(O)COC(C)(C)OC4)nc3[C@H](Cc3cc(F)cc(F)c3)NC(=O)Cn3nc(C(F)(F)F)c4c3C(F)(F)[C@@H]3C[C@H]43)c21 [Compound 74, N—((S)-1-(3-(4-chloro-1-methyl-3-(methylsulfonamido)-1H-indazol-7-yl)-6-((5-hydroxy-2,2-dimethyl-1,3-dioxan-5-yl)ethynyl)pyridin-2-yl)-2-(3,5-difluorophenyl)ethyl)-2-((3bS,4aR)-5,5-difluoro-3-(trifluoromethyl)-3b,4,4a,5-tetrahydro-1H-cyclopropa[3,4]cyclopenta[1,2-c]pyrazol-1-yl)acetamide]
HIV-IIIb; [2]
  inhibition at 0.2 µM: 77%
[1]
  CC50 at 5 days: 8.62 µM

## CN1CCN(CC#Cc2ccc(-c3ccc(Cl)c4c(NS(C)(=O)=O)nn(C)c34)c([C@H](Cc3cc(F)cc(F)c3)NC(=O)Cn3nc(C(F)(F)F)c4c3C(F)(F)[C@@H]3C[C@H]43)n2)CC1 [Compound 47, N—((S)-1-(3-(4-chloro-1-methyl-3-(methylsulfonamido)-1H-indazol-7-yl)-6-(3-(4-methylpiperazin-1-yl)prop-1-yn-1-yl)pyridin-2-yl)-2-(3,5-difluorophenyl)ethyl)-2-((3bS,4aR)-5,5-difluoro-3-(trifluoromethyl)-3b,4,4a,5-tetrahydro-1H-cyclopropa[3,4]cyclopenta[1,2-c]pyrazol-1-yl)acetamide]
HIV-IIIb; [2]
  inhibition at 0.2 µM: 94%
[1]
  CC50 at 5 days: 7.97 µM

## Cn1nc(NS(C)(=O)=O)c2c(Cl)ccc(-c3ccc(C#CC(C)(C)n4cn[nH]c4=O)nc3[C@H](Cc3cc(F)cc(F)c3)NC(=O)Cn3nc(C(F)F)c4c3C(F)(F)[C@@H]3C[C@H]43)c21 [Compound 98D, N—((S)-1-(3-(4-chloro-1-methyl-3-(methylsulfonamido)-1H-indazol-7-yl)-6-(3-methyl-3-(5-oxo-1H-1,2,4-triazol-4(5H)-yl)but-1-yn-1-yl)pyridin-2-yl)-2-(3,5-difluorophenyl)ethyl)-2-((3bS,4aR)-3-(difluoromethyl)-5,5-difluoro-3b,4,4a,5-tetrahydro-1H-cyclopropa[3,4]cyclopenta[1,2-c]pyrazol-1-yl)acetamide]
HIV-IIIb; [2]
  inhibition at 0.2 µM: 94%
[1]
  CC50 at 5 days: 10.4 µM

## Cn1nc(NS(C)(=O)=O)c2c(Cl)ccc(-c3ccc(C#CC4CNCCO4)nc3[C@H](Cc3cc(F)cc(F)c3)NC(=O)Cn3nc(C(F)F)c4c3C(F)(F)[C@@H]3C[C@H]43)c21 (stereo partly drawn) [Compound 68, N-((1S)-1-(3-(4-chloro-1-methyl-3-(methylsulfonamido)-1H-indazol-7-yl)-6-(morpholin-2-ylethynyl)pyridin-2-yl)-2-(3,5-difluorophenyl)ethyl)-2-((3bS,4aR)-3-(difluoromethyl)-5,5-difluoro-3b,4,4a,5-tetrahydro-1H-cyclopropa[3,4]cyclopenta[1,2-c]pyrazol-1-yl)acetamide]
HIV-IIIb; [2]
  inhibition at 0.2 µM: 100%
[1]
  CC50 at 5 days: 7.51 µM

## O=C(Cn1nc(C(F)F)c2c1C(F)(F)CCC2(F)F)N[C@@H](Cc1cc(F)cc(F)c1)c1nc(C#Cc2ccccc2)ncc1-c1ccc2c(c1)C(=O)NC2 [Compound 8, (S)-2-(3-(difluoromethyl)-4,4,7,7-tetrafluoro-4,5,6,7-tetrahydro-1H-indazol-1-yl)-N-(2-(3,5-difluorophenyl)-1-(5-(3-oxoisoindolin-5-yl)-2-(phenylethynyl)pyrimidin-4-yl)ethyl)acetamide]
HIV-IIIb; Human immunodeficiency virus 1, IIIB, MT4, 120 h
  inhibition at 0.2 µM: 102%
[1]
  CC50 at 5 days: > 53.2 µM

## Cn1nc(NS(C)(=O)=O)c2c(Cl)ccc(-c3ccc(C#C[C@@H]4COC(=O)N4)nc3[C@H](Cc3cc(F)cc(F)c3)NC(=O)Cn3nc(C(F)F)c4c3C(F)(F)[C@@H]3C[C@H]43)c21 [Compound 97C, N—((S)-1-(3-(4-chloro-1-methyl-3-(methylsulfonamido)-1H-indazol-7-yl)-6-(((R)-2-oxooxazolidin-4-yl)ethynyl)pyridin-2-yl)-2-(3,5-difluorophenyl)ethyl)-2-((3bS,4aR)-3-(difluoromethyl)-5,5-difluoro-3b,4,4a,5-tetrahydro-1H-cyclopropa[3,4]cyclopenta[1,2-c]pyrazol-1-yl)acetamide]
HIV-IIIb; [2]
  inhibition at 0.2 µM: 89%
[1]
  CC50 at 5 days: 15.2 µM

## Cn1nc(NS(C)(=O)=O)c2c(Cl)ccc(-c3ccc(C#CC4(O)CCC4)nc3[C@H](Cc3cc(F)cc(F)c3)NC(=O)Cn3nc(C(F)(F)F)c4c3C(F)(F)[C@@H]3C[C@H]43)c21 [Compound 61C, N—((S)-1-(3-(4-chloro-1-methyl-3-(methylsulfonamido)-1H-indazol-7-yl)-6-((1-hydroxycyclobutyl)ethynyl)pyridin-2-yl)-2-(3,5-difluorophenyl)ethyl)-2-((3bS,4aR)-5,5-difluoro-3-(trifluoromethyl)-3b,4,4a,5-tetrahydro-1H-cyclopropa[3,4]cyclopenta[1,2-c]pyrazol-1-yl)acetamide]
HIV-IIIb; [2]
  inhibition at 0.2 µM: 93%
[1]
  CC50 at 5 days: 7.89 µM

## Cn1nc(NS(C)(=O)=O)c2c(Cl)ccc(-c3ccc(C#CC(C)(C)n4ccnc4)nc3[C@H](Cc3cc(F)cc(F)c3)NC(=O)Cn3nc(C(F)F)c4c3C(F)(F)[C@@H]3C[C@H]43)c21 [Compound 80, N—((S)-1-(6-(3-(1H-imidazol-1-yl)-3-methylbut-1-yn-1-yl)-3-(4-chloro-1-methyl-3-(methylsulfonamido)-1H-indazol-7-yl)pyridin-2-yl)-2-(3,5-difluorophenyl)ethyl)-2-((3bS,4aR)-3-(difluoromethyl)-5,5-difluoro-3b,4,4a,5-tetrahydro-1H-cyclopropa[3,4]cyclopenta[1,2-c]pyrazol-1-yl)acetamide]
HIV-IIIb; [2]
  inhibition at 0.2 µM: 89%
[1]
  CC50 at 5 days: 20.9 µM

## Cn1nc(O)c2c(Cl)ccc(-c3ccc(C#CC4(O)CCOCC4)nc3[C@H](Cc3cc(F)cc(F)c3)NC(=O)Cn3nc(C(F)F)c4c3C(F)(F)[C@@H]3C[C@H]43)c21 [Compound 109E, N—((S)-1-(3-(4-chloro-3-hydroxy-1-methyl-1H-indazol-7-yl)-6-((4-hydroxytetrahydro-2H-pyran-4-yl)ethynyl)pyridin-2-yl)-2-(3,5-difluorophenyl)ethyl)-2-((3bS,4aR)-3-(difluoromethyl)-5,5-difluoro-3b,4,4a,5-tetrahydro-1H-cyclopropa[3,4]cyclopenta[1,2-c]pyrazol-1-yl)acetamide]
HIV-IIIb; [2]
  inhibition at 0.2 µM: 100%
[1]
  CC50 at 5 days: 22.3 µM
